# Assay results: patent US20260258032A1, “TYROSINE KINASE 2 INHIBITORS AND USES THEREOF” (BIOGEN MA INC., priority 2022, published 2026)
# Counter-ions that a name gives are not always drawn.
# Legend:
# [1] = tested on: Tyk2 kinase activity on STAT4; experiment: pSTAT4 cell assay (MSD, NK92 cells); assay type: cell-based; settings: compounds 1 hr, stimulated 15 minutes
# How it was run: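 NK92, serum-starved; cpd 1 hr, 10-pt 4-fold from 10 μM; IL2 30 ng/mL 15 min; lyse; MSD with anti-STAT4 Abs; IC50 by 4-PL fit.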
# JH2 domain of human Tyk2 = molecular target: T1, JH2 domain of human Tyk2 (Homo sapiens, UniProt P29597); experiment: JH2 biochemical assay (TR-FRET probe displacement); assay type: binding; settings: JH2 biochemical assay
# T1 construct: 10×His-tagged TYK2 JH2 domain (amino acid 575-876)
# How it was run: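 10×His-tagged human TYK2 JH2 (aa 575-876, 2 nM) incubated 60 min with 2 nM fluorescent probe, 0.1 nM Tb anti-His antibody and compound (10-point 3-fold series from […] top). TR-FRET 520/495 nm ratio, falling with probe displacement, normalized and fitted to a 4-parameter logistic for IC50.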
# T1 sequence (P29597 575-876): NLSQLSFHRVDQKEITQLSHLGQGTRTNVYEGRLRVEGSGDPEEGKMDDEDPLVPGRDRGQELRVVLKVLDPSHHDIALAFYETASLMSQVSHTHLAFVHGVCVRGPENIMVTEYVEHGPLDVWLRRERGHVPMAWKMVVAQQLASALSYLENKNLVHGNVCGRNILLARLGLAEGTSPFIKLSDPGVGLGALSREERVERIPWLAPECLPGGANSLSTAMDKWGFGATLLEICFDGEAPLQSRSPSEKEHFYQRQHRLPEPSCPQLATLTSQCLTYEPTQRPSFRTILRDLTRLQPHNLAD
Structure (SMILES),IC50 [1],IC50 (JH2 domain of human Tyk2)
"Cc1cc(N2CC3(CC3)c3cnc(NC(=O)N(C)C)cc32)nc(C(C)(F)F)n1 [Example 278, 3-(1′-(2-(1,1-difluoroethyl)-6-methylpyrimidin-4-yl)-1′,2′-dihydrospiro[cyclopropane-1,3′-pyrrolo[3,2-c]pyridin]-6′-yl)-1,1-dimethylurea]",≥ 1 µM,0.1 to 1 µM
"CC(=O)Nc1cc2c(cn1)C1(CC1)CN2c1cc(C)cc(C2(F)CC2)n1 [Example 279, N-(1′-(6-(1-fluorocyclopropyl)-4-methylpyridin-2-yl)-1′,2′-dihydrospiro[cyclopropane-1,3′-pyrrolo[3,2-c]pyridin]-6′-yl)acetamide]",0.1 to 1 µM,0.01 to 0.1 µM
"CC(=O)Nc1cc2c(cn1)C1(CC1)CN2c1cc(C(C)(F)F)ncn1 [Example 280, N-(1′-(6-(1,1-difluoroethyl)pyrimidin-4-yl)-1′,2′-dihydrospiro[cyclopropane-1,3′-pyrrolo[3,2-c]pyridin]-6′-yl)acetamide]",≥ 1 µM,0.1 to 1 µM
"CCOC(=O)C(F)(F)c1nc(C)cc(N2CC3(CC3)c3cnc(NC(C)=O)cc32)n1 [Example 281, Ethyl 2-(4-(6′-acetamidospiro[cyclopropane-1,3′-pyrrolo[3,2-c]pyridin]-1′(2′H)-yl)-6-methylpyrimidin-2-yl)-2,2-difluoroacetate]",≥ 1 µM,0.1 to 1 µM
"CC(=O)Nc1cc2c(cn1)C1(CC1)CN2c1cc(C(C)(F)F)nc(Cl)n1 [Example 282, N-(1′-(2-chloro-6-(1,1-difluoroethyl)pyrimidin-4-yl)-1′,2′-dihydrospiro[cyclopropane-1,3′-pyrrolo[3,2-c]pyridin]-6′-yl)acetamide]",≥ 1 µM,0.1 to 1 µM
"CC(=O)Nc1cc2c(cn1)C1(CC1)CN2c1cc(Cl)nc(C(C)(C)F)n1 [Example 283, N-(1′-(6-chloro-2-(2-fluoropropan-2-yl)pyrimidin-4-yl)-1′,2′-dihydrospiro[cyclopropane-1,3′-pyrrolo[3,2-c]pyridin]-6′-yl)acetamide]",0.1 to 1 µM,≤ 0.01 µM
"CC(=O)Nc1cc2c(cn1)C1(CC1)CN2c1cc(NC2CC2)nc(C(C)(F)F)n1 [Example 284, N-(1′-(6-(cyclopropylamino)-2-(1,1-difluoroethyl)pyrimidin-4-yl)-1′,2′-dihydrospiro[cyclopropane-1,3′-pyrrolo[3,2-c]pyridin]-6′-yl)acetamide trifluoroacetate]",0.01 to 0.1 µM,≤ 0.01 µM
"CC(=O)Nc1cc2c(cn1)C1(CC1)CN2c1cc(NC2COC2)nc(C(C)(F)F)n1 [Example 285, N-(1′-(2-(1,1-difluoroethyl)-6-(oxetan-3-ylamino)pyrimidin-4-yl)-1′,2′-dihydrospiro[cyclopropane-1,3′-pyrrolo[3,2-c]pyridin]-6′-yl)acetamide]",0.01 to 0.1 µM,≤ 0.01 µM
"CC(=O)Nc1cc2c(cn1)C1(CC1)CN2c1cc(C)nc(OCC(C)(C)O)n1 [Example 286, N-(1′-(2-(2-hydroxy-2-methylpropoxy)-6-methylpyrimidin-4-yl)-1′,2′-dihydrospiro[cyclopropane-1,3′-pyrrolo[3,2-c]pyridin]-6′-yl)acetamide]",0.1 to 1 µM,0.01 to 0.1 µM
"COCCOc1nc(N2CC3(CC3)c3cnc(NC(C)=O)cc32)cc(C(C)(F)F)n1 [Example 287, N-(1′-(6-(1,1-difluoroethyl)-2-(2-methoxyethoxy)pyrimidin-4-yl)-1′,2′-dihydrospiro[cyclopropane-1,3′-pyrrolo[3,2-c]pyridin]-6′-yl)acetamide]",0.1 to 1 µM,≤ 0.01 µM
"CC(=O)Nc1cc2c(cn1)C1(CC1)CN2c1cc(C)nc(OCCF)n1 [Example 288, N-(1′-(2-(2-fluoroethoxy)-6-methylpyrimidin-4-yl)-1′,2′-dihydrospiro[cyclopropane-1,3′-pyrrolo[3,2-c]pyridin]-6′-yl)acetamide]",0.1 to 1 µM,≤ 0.01 µM
"CC(=O)Nc1cc2c(cn1)C1(CC1)CN2c1cc(C)nc(C(F)(F)CO)n1 [Example 289, N-(1′-(2-(1,1-difluoro-2-hydroxyethyl)-6-methylpyrimidin-4-yl)-1′,2′-dihydrospiro[cyclopropane-1,3′-pyrrolo[3,2-c]pyridin]-6′-yl)acetamide]",0.01 to 0.1 µM,≤ 0.01 µM
"CC(=O)Nc1cc2c(cn1)C1(CC1)CN2c1cc(C)cc(C(F)(F)CO)n1 [Example 290, N-(1′-(6-(1,1-difluoro-2-hydroxyethyl)-4-methylpyridin-2-yl)-1′,2′-dihydrospiro[cyclopropane-1,3′-pyrrolo[3,2-c]pyridin]-6′-yl)acetamide]",0.01 to 0.1 µM,≤ 0.01 µM
"CCOC(=O)c1cc(N2CC3(CC3)c3cnc(NC(C)=O)cc32)nc(C(C)(F)F)n1 [Example 291, Ethyl 6-(6′-acetamidospiro[cyclopropane-1,3′-pyrrolo[3,2-c]pyridin]-1′(2′H)-yl)-2-(1,1-difluoroethyl)pyrimidine-4-carboxylate]",0.1 to 1 µM,≤ 0.01 µM
"CC(=O)Nc1cc2c(cn1)C1(CC1)CN2c1cc(C(C)O)nc(C(C)(F)F)n1 (stereo not shown) [Example 293, N-(1′-(2-(1,1-difluoroethyl)-6-(1-hydroxyethyl)pyrimidin-4-yl)-1′,2′-dihydrospiro[cyclopropane-1,3′-pyrrolo[3,2-c]pyridin]-6′-yl)acetamide]",0.1 to 1 µM,≤ 0.01 µM
"CC(=O)Nc1cc2c(cn1)C1(CC1)CN2c1cc(C(=O)O)nc(C(C)(F)F)n1 [Example 294, 6-(6′-acetamidospiro[cyclopropane-1,3′-pyrrolo[3,2-c]pyridin]-1′(2′H)-yl)-2-(1,1-difluoroethyl)pyrimidine-4-carboxylic acid]",≥ 1 µM,0.01 to 0.1 µM
"CC(=O)Nc1cc2c(cn1)C1(CC1)CN2c1cc(C2=COCC2)nc(C(C)(F)F)n1 [Example 296, N-(1′-(2-(1,1-difluoroethyl)-6-(4,5-dihydrofuran-3-yl)pyrimidin-4-yl)-1′,2′-dihydrospiro[cyclopropane-1,3′-pyrrolo[3,2-c]pyridin]-6′-yl)acetamide trifluoroacetate]",0.1 to 1 µM,≤ 0.01 µM
"CC(=O)Nc1cc2c(cn1)C1(CC1)CN2c1cc(C2CCOC2)nc(C(C)(F)F)n1 (stereo not shown) [Example 297, N-(1′-(2-(1,1-difluoroethyl)-6-(tetrahydrofuran-3-yl)pyrimidin-4-yl)-1′,2′-dihydrospiro[cyclopropane-1,3′-pyrrolo[3,2-c]pyridin]-6′-yl)acetamide trifluoroacetate]",0.1 to 1 µM,≤ 0.01 µM
"CNCc1cc(N2CC3(CC3)c3cnc(NC(C)=O)cc32)nc(C(C)(F)F)n1 [Example 298, N-(1′-(2-(1,1-difluoroethyl)-6-((methylamino)methyl)pyrimidin-4-yl)-1′,2′-dihydrospiro[cyclopropane-1,3′-pyrrolo[3,2-c]pyridin]-6′-yl)acetamide]",≥ 1 µM,0.01 to 0.1 µM
"CC(=O)Nc1cc2c(cn1)C1(CC1)CN2c1cc(CN2CCC2)nc(C(C)(F)F)n1 [Example 299, N-(1′-(6-(azetidin-1-ylmethyl)-2-(1,1-difluoroethyl)pyrimidin-4-yl)-1′,2′-dihydrospiro[cyclopropane-1,3′-pyrrolo[3,2-c]pyridin]-6′-yl)acetamide]",0.1 to 1 µM,0.01 to 0.1 µM
"CC(=O)Nc1cc2c(cn1)C1(CC1)CN2c1cc(-c2ncn(C)n2)nc(C(C)(F)F)n1 [Example 300, N-(1′-(2-(1,1-difluoroethyl)-6-(1-methyl-1H-1,2,4-triazol-3-yl)pyrimidin-4-yl)-1′,2′-dihydrospiro[cyclopropane-1,3′-pyrrolo[3,2-c]pyridin]-6′-yl)acetamide]",0.1 to 1 µM,≤ 0.01 µM
"CCn1ncc(-c2cc(N3CC4(CC4)c4cnc(NC(C)=O)cc43)nc(C(C)(F)F)n2)c1F [Example 301, N-(1′-(2-(1,1-difluoroethyl)-6-(1-ethyl-5-fluoro-1H-pyrazol-4-yl)pyrimidin-4-yl)-1′,2′-dihydrospiro[cyclopropane-1,3′-pyrrolo[3,2-c]pyridin]-6′-yl)acetamide]",0.01 to 0.1 µM,≤ 0.01 µM
"CC(=O)Nc1cc2c(cn1)C1(CC1)CN2c1cc(CC#N)nc(C(C)(F)F)n1 [Example 303, N-(1′-(6-(cyanomethyl)-2-(1,1-difluoroethyl)pyrimidin-4-yl)-1′,2′-dihydrospiro[cyclopropane-1,3′-pyrrolo[3,2-c]pyridin]-6′-yl)acetamide]",≥ 1 µM,0.01 to 0.1 µM
"CCC(F)(F)c1nc(C)cc(N2CC3(CC3)c3cnc(NC(C)=O)cc32)n1 [Example 304, N-(1′-(2-(1,1-difluoropropyl)-6-methylpyrimidin-4-yl)-1′,2′-dihydrospiro[cyclopropane-1,3′-pyrrolo[3,2-c]pyridin]-6′-yl)acetamide trifluoroacetate]",0.01 to 0.1 µM,≤ 0.01 µM
"CC(=O)Nc1cc2c(cn1)C1(CC1)CN2c1cc(F)nc(C(C)(F)F)n1 [Example 305, N-(1′-(2-(1,1-difluoroethyl)-6-fluoropyrimidin-4-yl)-1′,2′-dihydrospiro[cyclopropane-1,3′-pyrrolo[3,2-c]pyridin]-6′-yl)acetamide trifluoroacetate]",0.1 to 1 µM,0.01 to 0.1 µM
"CC(=O)Nc1cc2c(cn1)C1(CC1)CN2c1cc(C)cc(C23COC(C)(C2)C3)n1 [Example 306, N-(1′-(4-methyl-6-(1-methyl-2-oxabicyclo[2.1.1]hexan-4-yl)pyridin-2-yl)-1′,2′-dihydrospiro[cyclopropane-1,3′-pyrrolo[3,2-c]pyridin]-6′-yl)acetamide]",≥ 1 µM,0.01 to 0.1 µM
